Entries after “also recorded” stand apart in the source; their conditions may differ. Where two headings read alike, the source gives them in different places. Positions of bridges follow the written chain, without caps; N, C: chain ends. Residues, ends and D or L forms follow the SMILES beside them. No end group written: not given here.
Assays:
HER2 receptor = biological target: T1, HER2 receptor (Homo sapiens, UniProt P04626); test: Biacore (surface plasmon resonance) binding of peptides to immobilized HER2; conditions: for kon: read-out: binding to HER2 kon
T1 construct: Recombinant purified HER2 receptor composed of the ectodomain of HER2 fused to the Fc of human IgG; purchased Xcyte Therapeutics, Seattle, Wash; (provided by Dr. Che Law; a gift, not a catalogue product)
T1 sequence (P04626 23-652 limits assumed): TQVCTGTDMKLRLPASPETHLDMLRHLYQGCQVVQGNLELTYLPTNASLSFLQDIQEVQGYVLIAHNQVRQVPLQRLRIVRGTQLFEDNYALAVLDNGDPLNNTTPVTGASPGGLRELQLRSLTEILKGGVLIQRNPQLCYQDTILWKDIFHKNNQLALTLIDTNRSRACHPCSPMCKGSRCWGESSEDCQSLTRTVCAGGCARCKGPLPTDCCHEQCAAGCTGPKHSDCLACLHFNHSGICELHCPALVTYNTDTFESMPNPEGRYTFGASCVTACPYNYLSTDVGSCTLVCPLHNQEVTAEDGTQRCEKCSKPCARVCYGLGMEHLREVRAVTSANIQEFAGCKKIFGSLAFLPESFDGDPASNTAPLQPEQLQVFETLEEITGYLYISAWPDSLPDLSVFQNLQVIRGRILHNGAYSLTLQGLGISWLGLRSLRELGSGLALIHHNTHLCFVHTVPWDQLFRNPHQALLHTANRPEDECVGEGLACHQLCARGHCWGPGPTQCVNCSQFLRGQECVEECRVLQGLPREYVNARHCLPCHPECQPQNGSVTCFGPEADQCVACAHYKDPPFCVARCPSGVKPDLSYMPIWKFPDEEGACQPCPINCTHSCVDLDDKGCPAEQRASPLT
From the text: Binding of AHNP has been studies by means of surface plasmon resonance (Biacore) technology. In Biacore experiments, one of the interacting molecules (termed the ligand) is immobilized on the sensor surface, and the other interactant (termed the analyte) is continuously flown over that surface in a micro-flow cell. The interaction between the ligand and the analyte are monitored using a light source that is reflected at the immobilized chip. Binding of the analyte to the immobilized ligand changes the resonance angle of the reflected light due to changes in the refractive index of the surface. The response is plotted in real time in the form of sensorgram curves. The advantage with this approach is its sensitivity, ease of use, and ability to perform experiments with few microgram quantities of proteins and peptides. In addition, the kinetic binding studies reveal association and disassociation rates of the analyte which may be more relevant for understanding the pharmacokinetics of drug-receptor interactions.
Binding experiments were performed with the surface plasmon resonance based biosensor instrument Biacore 3000 (Biacore AB, Uppsala, Sweden) at 25° C. Recombinant purified HER2 receptor composed of the ectodomain of HER2 fused to the Fc of human IgG was provided by Dr. Che Law, Xcyte Therapeutics, Seattle, Wash. Immobilization of HER2 in the sensor surface was performed following the standard amine coupling procedure according to manufacturer's instructions. Briefly, 35 pit of a solution containing 0.2M N-ethyl-N-(dimethylaminopropyl) carbodiimide (EDC) and 0.05 M N-hydroxysuccinimide (NHS) were injected at a flow rate of 5 μL/min to activate carboxyl groups on the sensor chip surface. HER2 (40 ng/mL in 10 mM NaOAc buffer, pH 5.0) was flowed over the chip surface at a flow rate of 20 μL/min until the desired level bound protein was reached. Unreacted protein was washed out and unreacted activated groups were blocked by the injection of 35 μL of 1 M ethanolamine at 5 μL/min. […] A reference surface was generated simultaneously under the same conditions but without HER2 injection and used as a blank to correct for instrument and buffer artifacts. Peptides were injected at variable concentrations at 20 μL/min flow rate and binding to the HER2 receptor immobilized on the chip was monitored in real time. Each sensorgram consists of an association phase (first 240 s), reflecting binding of the injected peptide to the receptor, followed by a dissociation phase (300 s), during which the running buffer is passed over the chip and the bound peptide is being washed off the receptor surface.

T6-17 cells = conditions: for % inhibition of T6-17 cell proliferation in MTT assays: 1 μg/mL of peptides for 48 h
Protocol: (See reference 46 below.) HER2-expressing transformed tumor cells (T6-17) were used for this purpose. […] Each value represents an average of at least four samples.
The MTT assay has been used for measuring cell growth as previously described in ref 446. Briefly, T6-17 cells were seeded in 96-well plates overnight in DMEM containing 10% FBS (1000 per well). T6-17 is derived from NIH3T3 by overexpressing the human HER2 receptor. Cells were cultured in 100 μL of fresh medium containing 1 μg/mL of peptides for 48 h. […] A total of 25 μL of MTT solution (5 mg/mL in PBS) was added to each well, and after 2 h of incubation at 37° C., 100 μA of the extraction buffer (20% w/v of SDS, 50% N,N-dimethyl formamide, pH 4.7) were added. After an overnight incubation at 37° C., the optical density at 600 rim was measured using an ELISA reader.

[1] = Peptide solubility in PBS buffer at 1 mg/mL; type: physicochemical; conditions: pH 7.4, 1 mg/mL
Protocol: These peptides could be readily dissolved in the PBS buffer, pH 7.4, at 1 mg/mL concentration without adjustment of pH.

[2] = test system: MCF-7 parental strain (MCF/Par) p185-expressing cells; test: Combination treatment with tamoxifen, growth inhibition, MCF-7 parental; type: cell-based; conditions: peptide 1 μg/ml plus tamoxifen
[3] = test system: MCF-7/H2 p185-overexpressing cells; test: Combination treatment with tamoxifen, growth inhibition, MCF-7/H2; type: cell-based; conditions: peptide 1 μg/ml plus tamoxifen
[4] = Biacore, immobilized HER2, 25° C., read-out: binding to HER2 koff
[5] = Biacore, immobilized HER2, 25° C.
[6] = Biacore, immobilized HER2, 25° C., read-out: binding to HER2 KD

Compound | koff (HER2 receptor; [4]) | kon (HER2 receptor; [5]) | solubility [1] | solubility (in words) [1] | Kd (HER2 receptor; [6]) | further results
CSCC[C@H](NC(=O)[C@H](Cc1ccc(O)cc1)NC(=O)[C@@H]1CSSC[C@H](NC(=O)[C@@H](N)Cc2ccc(O)cc2)C(=O)N[C@@H](CC(=O)O)C(=O)NCC(=O)N[C@@H](Cc2ccccc2)C(=O)N[C@@H](Cc2ccc(O)cc2)C(=O)N[C@@H](C)C(=O)N1)C(=O)N[C@@H](CC(=O)O)C(=O)N[C@H](C(N)=O)C(C)C [Peptide 3] (H-YCDGFYACYMDV-NH2; disulfide 2-8; N-terminus assumed) | 0.000294 s⁻¹ | 1960 M⁻¹ s⁻¹ | < 1000 µg/mL | – | – | koff (HER2 receptor; Biacore, immobilized HER2, read-out: koff): 0.000294 s⁻¹; Kd (HER2 receptor; Biacore, read-out: receptor-binding affinity KD): 150 nM; biological activity in the MTT assay relative to comparator (in words) (T6-17 cells; T6-17 cells): almost twice the activity of AHNP; growth inhibition in combination with tamoxifen (in words) [2]: enhanced growth inhibition; growth inhibition in combination with tamoxifen (in words) [3]: enhanced growth inhibition
CSCC[C@H](NC(=O)[C@H](Cc1ccc(O)cc1)NC(=O)[C@@H]1CSSC[C@H](NC(=O)[C@@H](N)Cc2ccccc2)C(=O)NCC(=O)N[C@@H](CC(=O)O)C(=O)NCC(=O)N[C@@H](Cc2ccccc2)C(=O)N[C@@H](Cc2ccc(O)cc2)C(=O)N[C@@H](C)C(=O)N1)C(=O)N[C@@H](CC(=O)O)C(=O)N[C@H](C(=O)O)C(C)C [Peptide 8] (H-FCGDGFYACYMDV-OH; disulfide 2-9; N-terminus assumed) | 0.000701 s⁻¹ | 922 M⁻¹ s⁻¹ | > 1000 µg/mL | much higher solubility | – | –
CSCC[C@H](NC(=O)[C@H](Cc1ccc(O)cc1)NC(=O)[C@H](CS)NC(=O)[C@H](C)NC(=O)[C@H](Cc1ccc(O)cc1)NC(=O)[C@H](Cc1ccccc1)NC(=O)CNC(=O)[C@H](CC(=O)O)NC(=O)[C@H](CS)NC(=O)[C@@H](N)Cc1ccccc1)C(=O)N[C@@H](CC(=O)O)C(=O)N[C@H](C(=O)O)C(C)C [Peptide 9] | – | – | > 1000 µg/mL | much higher solubility | – | Kd (HER2 receptor): 3560 nM; koff (HER2 receptor; read-out: binding to HER2 koff): 0.00106 s⁻¹; kon (HER2 receptor): 298 M⁻¹ s⁻¹; % inhibition of T6-17 cell proliferation in MTT assays (T6-17 cells): 12.8%
CSCC[C@H](NC(=O)[C@H](Cc1ccc(O)cc1)NC(=O)[C@@H]1CSSC[C@H](NC(=O)[C@H](Cc2ccccc2)NC(=O)CN)C(=O)N[C@@H](CC(=O)O)C(=O)NCC(=O)N[C@@H](Cc2ccccc2)C(=O)N[C@@H](Cc2ccc(O)cc2)C(=O)N[C@@H](C)C(=O)N1)C(=O)N[C@@H](CC(=O)O)C(=O)N[C@H](C(=O)O)C(C)C [Peptide 7] (H-GFCDGFYACYMDV-OH; disulfide 3-9) | 0.000808 s⁻¹ | 1110 M⁻¹ s⁻¹ | > 1000 µg/mL | increased solubility; also recorded: good solubility | 730 nM | –
CSCC[C@H](NC(=O)[C@H](Cc1ccc(O)cc1)NC(=O)[C@@H]1CSSC[C@H](NC(=O)[C@@H](N)Cc2ccccc2)C(=O)N[C@@H](CC(=O)O)C(=O)NCC(=O)N[C@@H](Cc2ccccc2)C(=O)N[C@@H](Cc2ccc(O)cc2)C(=O)N[C@@H](C)C(=O)N1)C(=O)N[C@@H](CC(=O)O)C(=O)N[C@H](C(=O)O)C(C)C [Peptide 2] | – | – | < 1000 µg/mL | no improvement in solubility | 650 nM | fold increase in binding affinity for HER2 relative to the comparator peptide (HER2 receptor; 2 vs linear 9, AHNP vs 2, 3 vs AHNP): more than 5 fold; koff (HER2 receptor; read-out: binding to HER2 koff): 0.000643 s⁻¹; kon (HER2 receptor): 990 M⁻¹ s⁻¹; % inhibition of T6-17 cell proliferation in MTT assays (T6-17 cells): 22.3%
FCGDGFYACYMDV-NH2 (disulfide 2-9 (inferred)) [SEQ ID NO: 143] | – | – | – | – | – | growth inhibition in combination with tamoxifen (in words) [2]: enhanced in vitro inhibition of proliferation; growth inhibition in combination with tamoxifen (in words) [3]: enhanced in vitro inhibition of proliferation
CC(C)[C@H](NC(=O)[C@H](CC(=O)O)NC(=O)[C@H](CCCCN)NC(=O)[C@H](Cc1ccc(O)cc1)NC(=O)[C@@H]1CSSC[C@H](NC(=O)[C@@H](N)Cc2ccccc2)C(=O)N[C@@H](CC(=O)O)C(=O)NCC(=O)N[C@@H](Cc2ccccc2)C(=O)N[C@@H](Cc2ccc(O)cc2)C(=O)N[C@@H](C)C(=O)N1)C(=O)O [Peptide 6] (H-FCDGFYACYKDV-OH; disulfide 2-8; N-terminus assumed) | 0.00125 s⁻¹ | 219 M⁻¹ s⁻¹ | > 1000 µg/mL | much higher solubility | 5700 nM | fold decrease in binding affinity for HER2 (HER2 receptor; Lys-containing analogues vs parent peptide): 8.8 fold; decrease in binding affinity (HER2 receptor; Met replaced with Lys): about 1 order of magnitude
CSCC[C@H](NC(=O)[C@H](Cc1ccc(O)cc1)NC(=O)[C@@H]1CSSC[C@H](NC(=O)[C@@H](N)Cc2ccccc2)C(=O)N[C@@H](CC(=O)O)C(=O)NCC(=O)N[C@@H](Cc2ccccc2)C(=O)N[C@@H](Cc2ccc(O)cc2)C(=O)N[C@@H](C)C(=O)N1)C(=O)N[C@@H](CC(=O)O)C(=O)N[C@H](C(=O)N[C@@H](CCCCN)C(N)=O)C(C)C [Peptide 5] (H-FCDGFYACYMDVK-NH2; disulfide 2-8) | – | – | < 1000 µg/mL | no improvement in solubility | 830 nM | lower receptor affinity than 7 (HER2 receptor; relative to peptide 7): 14%
CSCC[C@H](NC(=O)[C@@H](Cc1ccc(O)cc1)NC(=O)[C@@H]1CSSC[C@H](NC(=O)[C@H](N)Cc2ccccc2)C(=O)N[C@@H](CC(=O)O)C(=O)NCC(=O)N[C@@H](Cc2ccccc2)C(=O)N[C@@H](Cc2ccc(O)cc2)C(=O)N[C@@H](C)C(=O)N1)C(=O)N[C@@H](CC(=O)O)C(=O)N[C@H](C(N)=O)C(C)C [Peptide 4] | 0.000603 s⁻¹ | 1720 M⁻¹ s⁻¹ | > 1000 µg/mL | much higher solubility | 350 nM | –

— US7998924B2, “Compounds that bind to p185 and methods of using the same” (The Trustees of The University of Pennsylvania, priority 2001, dated 2011)
